Measured values as given in ChEMBL document CHEMBL1201862, “PubChem BioAssay data set” (2004).
Activity calls are given as the source filed them.

Experiments:
[1] = biological target: Eukaryotic translation initiation factor 4H (Homo sapiens, UniProt Q15056); assay: human eIF4H binding inhibitors, primary screen, translation initiation inhibitor project, biochemical, uHTS, fluorescence polarization (AID 2012)
[2] = biological target: T1, Polyadenylate-binding protein 1 (Homo sapiens, UniProt P11940); assay: PABP poly(A) RNA binding inhibitors, primary screen, biochemical, fluorescence polarization, uHTS (AID 2014)
T1 sequence (P11940 whole entry): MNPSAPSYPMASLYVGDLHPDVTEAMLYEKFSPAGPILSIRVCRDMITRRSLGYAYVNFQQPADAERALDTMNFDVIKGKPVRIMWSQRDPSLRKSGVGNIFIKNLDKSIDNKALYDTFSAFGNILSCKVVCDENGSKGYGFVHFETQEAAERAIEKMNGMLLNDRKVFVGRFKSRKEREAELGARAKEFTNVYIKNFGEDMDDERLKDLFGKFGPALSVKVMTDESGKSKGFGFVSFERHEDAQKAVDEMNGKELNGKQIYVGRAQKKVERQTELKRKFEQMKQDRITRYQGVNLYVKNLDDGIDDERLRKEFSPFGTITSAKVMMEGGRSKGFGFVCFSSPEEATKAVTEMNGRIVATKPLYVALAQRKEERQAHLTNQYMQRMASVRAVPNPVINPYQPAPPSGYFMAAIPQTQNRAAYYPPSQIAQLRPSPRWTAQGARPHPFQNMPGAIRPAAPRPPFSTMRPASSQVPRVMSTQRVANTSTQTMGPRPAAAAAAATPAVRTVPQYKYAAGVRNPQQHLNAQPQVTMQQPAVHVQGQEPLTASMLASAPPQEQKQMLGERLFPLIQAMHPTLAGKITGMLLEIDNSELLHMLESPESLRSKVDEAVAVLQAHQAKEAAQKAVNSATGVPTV

[3] = biological target: DNA dC->dU-editing enzyme APOBEC-3A (Homo sapiens, UniProt P31941); assay: Dose Response confirmation of small molecule APOBEC3A DNA Deaminase Inhibitors via a fluorescence-based single-stranded DNA deaminase assay. [Related pubchem assays (depositor defined):AID493011, AID493024]; type: functional
Sequence of DNA dC->dU-editing enzyme APOBEC-3A (P31941 whole entry): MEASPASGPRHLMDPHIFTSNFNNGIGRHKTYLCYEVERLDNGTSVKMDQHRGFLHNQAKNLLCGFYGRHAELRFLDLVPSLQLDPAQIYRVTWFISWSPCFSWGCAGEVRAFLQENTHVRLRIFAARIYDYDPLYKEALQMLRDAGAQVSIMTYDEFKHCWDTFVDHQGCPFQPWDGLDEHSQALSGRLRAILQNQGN

[4] = biological target: DNA dC->dU-editing enzyme APOBEC-3G (Homo sapiens, UniProt Q9HC16); type: functional;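 note: Dose-response counterscreen measuring inhibition of APOBEC3G DNA deaminase activity, run while confirming APOBEC3A inhibitors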
Sequence of DNA dC->dU-editing enzyme APOBEC-3G (Q9HC16 whole entry): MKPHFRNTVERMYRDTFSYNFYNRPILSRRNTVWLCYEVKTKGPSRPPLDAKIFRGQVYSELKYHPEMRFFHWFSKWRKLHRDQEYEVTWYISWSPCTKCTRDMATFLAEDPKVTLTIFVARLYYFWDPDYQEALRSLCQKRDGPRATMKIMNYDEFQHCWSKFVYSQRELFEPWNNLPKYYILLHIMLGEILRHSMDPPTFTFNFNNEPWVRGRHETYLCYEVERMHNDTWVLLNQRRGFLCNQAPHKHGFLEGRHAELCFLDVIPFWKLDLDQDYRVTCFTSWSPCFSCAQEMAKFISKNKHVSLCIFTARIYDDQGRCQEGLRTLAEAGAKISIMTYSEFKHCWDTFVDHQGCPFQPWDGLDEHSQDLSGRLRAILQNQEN

Bcl-2-like protein 10 = Bcl-2-like protein 10 (Homo sapiens, UniProt Q9HD36); assay: displacers of TR3 peptide from Bcl-B, primary screen, selectivity assay for Bfl-1 inhibitor project, biochemical, fluorescence polarization, FITC-TR3 peptide (AID 748);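 note: fluorescence polarization from a fluorescein-labelled TR3 peptide binding purified Bcl-B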
Sequence of Bcl-2-like protein 10 (Q9HD36 whole entry): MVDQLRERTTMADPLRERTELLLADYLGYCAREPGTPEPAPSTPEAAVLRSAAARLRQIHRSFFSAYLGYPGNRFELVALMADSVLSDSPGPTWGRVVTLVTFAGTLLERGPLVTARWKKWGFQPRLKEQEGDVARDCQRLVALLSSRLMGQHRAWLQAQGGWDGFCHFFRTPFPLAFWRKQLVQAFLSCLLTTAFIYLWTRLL

[5] = growth suppression of PTEN-null colon cells, dose response, cell-based, HCT116 PTEN knockout (AID 1047); type: functional;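 note: HCT116 colon tumor cells with PTEN knocked out; cells exposed to compound for 60 hours before readout; potency for loss of cell viability measured by luminescence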
[6] = growth suppression of beta-catenin-knockout colon cells, dose response, cell-based, HCT116, human colon tumor (AID 1045); type: functional;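 note: HCT116 colon tumor cells with beta catenin knocked out; cells exposed to compound for 60 hours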
NADPH oxidase 1 = biological target: T2, NADPH oxidase 1 (Homo sapiens, UniProt Q9Y5S8); type: functional, cell-based;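 note: Cell-based assay with luminescence read-out, IC50 derived from inhibitor dose-response curves; intracellular ROS from endogenous NOX1 in intact HT29 colon cancer cells; potency of inhibitors that lower the ROS luminescence signal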
T2 sequence (Q9Y5S8 whole entry): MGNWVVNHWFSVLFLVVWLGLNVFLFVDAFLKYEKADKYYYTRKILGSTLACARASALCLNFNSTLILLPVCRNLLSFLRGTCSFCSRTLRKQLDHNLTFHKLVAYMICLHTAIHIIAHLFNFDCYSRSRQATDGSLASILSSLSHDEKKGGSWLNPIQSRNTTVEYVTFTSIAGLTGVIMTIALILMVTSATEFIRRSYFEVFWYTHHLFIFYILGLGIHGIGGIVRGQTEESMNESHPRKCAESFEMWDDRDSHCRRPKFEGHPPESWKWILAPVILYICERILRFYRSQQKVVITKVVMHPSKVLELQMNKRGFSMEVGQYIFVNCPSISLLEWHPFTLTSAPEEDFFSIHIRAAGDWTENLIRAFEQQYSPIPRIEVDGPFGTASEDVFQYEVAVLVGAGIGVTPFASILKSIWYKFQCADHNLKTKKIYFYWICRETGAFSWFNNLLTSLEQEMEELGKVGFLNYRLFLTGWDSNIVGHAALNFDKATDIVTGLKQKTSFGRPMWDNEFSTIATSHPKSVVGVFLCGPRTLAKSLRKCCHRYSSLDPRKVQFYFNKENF

Cytochrome P450 2C9 [7] = biological target: T3, Cytochrome P450 2C9 (Homo sapiens, UniProt P11712); settings: Potency
T3 sequence (P11712 whole entry): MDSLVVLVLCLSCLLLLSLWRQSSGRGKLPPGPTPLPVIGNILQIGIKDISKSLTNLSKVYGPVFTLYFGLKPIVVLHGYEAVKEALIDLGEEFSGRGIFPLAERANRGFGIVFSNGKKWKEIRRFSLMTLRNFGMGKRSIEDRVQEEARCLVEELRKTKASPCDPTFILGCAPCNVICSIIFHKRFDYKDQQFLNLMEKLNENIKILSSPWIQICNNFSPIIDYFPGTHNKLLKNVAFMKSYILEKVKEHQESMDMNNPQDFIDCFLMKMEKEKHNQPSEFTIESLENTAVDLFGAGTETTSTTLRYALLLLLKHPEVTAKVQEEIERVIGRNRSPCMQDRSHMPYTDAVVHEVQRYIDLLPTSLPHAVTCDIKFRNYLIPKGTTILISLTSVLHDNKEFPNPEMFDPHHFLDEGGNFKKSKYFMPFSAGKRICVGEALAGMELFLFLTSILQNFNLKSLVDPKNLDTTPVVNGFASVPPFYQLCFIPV

[8] = biological target: Female germline-specific tumor suppressor gld-1 (Caenorhabditis elegans, UniProt Q17339); assay: inhibitors of GLD-1 binding to TGE RNA, dose response, biochemical, fluorescence polarization, C. elegans (AID 2802);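 note: fluorescence polarization of labeled TGE RNA bound by purified gld-1 protein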
Sequence of Female germline-specific tumor suppressor gld-1 (Q17339 whole entry): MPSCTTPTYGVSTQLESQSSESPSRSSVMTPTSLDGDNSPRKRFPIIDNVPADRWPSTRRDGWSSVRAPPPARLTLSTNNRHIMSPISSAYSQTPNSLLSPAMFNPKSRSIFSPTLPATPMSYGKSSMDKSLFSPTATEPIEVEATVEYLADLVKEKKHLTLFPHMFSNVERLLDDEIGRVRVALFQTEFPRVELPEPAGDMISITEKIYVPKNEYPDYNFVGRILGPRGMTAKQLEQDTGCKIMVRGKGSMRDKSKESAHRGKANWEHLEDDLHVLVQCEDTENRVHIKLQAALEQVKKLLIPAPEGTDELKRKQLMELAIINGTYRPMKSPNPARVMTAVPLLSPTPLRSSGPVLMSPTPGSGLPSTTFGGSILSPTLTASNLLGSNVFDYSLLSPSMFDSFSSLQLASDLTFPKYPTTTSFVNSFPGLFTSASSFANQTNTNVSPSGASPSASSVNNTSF

[9] = biological target: T1, Polyadenylate-binding protein 1; assay: PABP1 MLLE–PAM2 interaction inhibitors, dose response, miRNA deadenylation inhibitor project, biochemical, fluorescence polarization, Cy5-PAM2 peptide, secondary (AID 602260); type: functional; settings: read-out: IC50_Mean
[10] = biological target: T1, Polyadenylate-binding protein 1; assay: PABP1 MLLE–PAM2 binding inhibitor potency, dose response, biochemical, fluorescence polarization, FITC-PAM2 peptide (AID 602259); type: functional; settings: read-out: IC50_Mean
Protein Rev = Protein Rev (Human immunodeficiency virus type 1 group M subtype B (isolate HXB2)(HIV-1), UniProt P04618); assay: inhibitors of Rev binding to RRE RNA, dose response, biochemical, fluorescence polarization, HIV-1 (AID 434976); design: species or system Human immunodeficiency virus 1
Sequence of Protein Rev (P04618 whole entry): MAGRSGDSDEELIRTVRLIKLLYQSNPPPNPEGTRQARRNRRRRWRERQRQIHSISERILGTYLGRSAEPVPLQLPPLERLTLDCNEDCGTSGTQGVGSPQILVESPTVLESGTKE

[11] = biological target: T4, Eukaryotic translation initiation factor 2-alpha kinase 3 (Homo sapiens, UniProt Q9NZJ5); assay: Dose response cell-based high-throughput screening assay to measure PERK inhibition. [Related pubchem assays: 1416 ]; type: functional
T4 sequence (Q9NZJ5 whole entry): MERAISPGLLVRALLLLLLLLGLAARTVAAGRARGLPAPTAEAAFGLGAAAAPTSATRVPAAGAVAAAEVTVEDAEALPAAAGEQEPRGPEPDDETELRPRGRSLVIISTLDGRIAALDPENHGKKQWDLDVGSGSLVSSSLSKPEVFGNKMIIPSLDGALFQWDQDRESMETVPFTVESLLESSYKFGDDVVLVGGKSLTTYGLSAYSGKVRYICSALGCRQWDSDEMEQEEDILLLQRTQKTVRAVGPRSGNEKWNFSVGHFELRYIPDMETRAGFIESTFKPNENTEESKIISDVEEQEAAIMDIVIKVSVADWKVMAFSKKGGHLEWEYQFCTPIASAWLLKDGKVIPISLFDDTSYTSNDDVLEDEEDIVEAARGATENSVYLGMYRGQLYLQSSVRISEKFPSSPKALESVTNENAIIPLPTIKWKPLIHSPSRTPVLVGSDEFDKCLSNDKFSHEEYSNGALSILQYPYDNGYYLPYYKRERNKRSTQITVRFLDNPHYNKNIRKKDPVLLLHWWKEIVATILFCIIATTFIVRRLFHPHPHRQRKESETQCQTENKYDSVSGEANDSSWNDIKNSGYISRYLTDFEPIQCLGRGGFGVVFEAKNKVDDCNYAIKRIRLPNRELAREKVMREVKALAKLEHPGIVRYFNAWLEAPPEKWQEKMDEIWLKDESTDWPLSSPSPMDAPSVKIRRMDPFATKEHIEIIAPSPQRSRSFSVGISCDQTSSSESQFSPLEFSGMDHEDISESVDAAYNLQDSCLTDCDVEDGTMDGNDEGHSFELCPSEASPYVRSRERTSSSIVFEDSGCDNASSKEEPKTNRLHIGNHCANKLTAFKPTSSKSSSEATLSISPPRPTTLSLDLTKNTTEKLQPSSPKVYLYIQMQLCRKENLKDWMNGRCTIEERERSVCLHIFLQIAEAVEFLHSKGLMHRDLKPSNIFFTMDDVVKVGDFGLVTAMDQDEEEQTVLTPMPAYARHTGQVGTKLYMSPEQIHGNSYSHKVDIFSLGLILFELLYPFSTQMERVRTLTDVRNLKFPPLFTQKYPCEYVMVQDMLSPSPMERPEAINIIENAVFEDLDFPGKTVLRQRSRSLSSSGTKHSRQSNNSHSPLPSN

[12] = biological target: T4, Eukaryotic translation initiation factor 2-alpha kinase 3; assay: Counterscreen assay for PERK inhibitors: Dose response cell-based high throughput screening assay to measure inhibition of PERK at 6 hours. [Related pubchem assays: 1522, 1416 ]; type: functional
[13] = biological target: T5, RNA-binding protein pos-1 (Caenorhabditis elegans, UniProt G5EF15); assay: inhibitors of POS-1/mex-3 RNA binding, dose response, biochemical, fluorescence polarization (AID 1964);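 note: purified POS-1 fused to maltose binding protein made in E. coli; potency of compounds blocking POS-1 binding to fluorescent RNA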
T5 sequence (G5EF15 whole entry): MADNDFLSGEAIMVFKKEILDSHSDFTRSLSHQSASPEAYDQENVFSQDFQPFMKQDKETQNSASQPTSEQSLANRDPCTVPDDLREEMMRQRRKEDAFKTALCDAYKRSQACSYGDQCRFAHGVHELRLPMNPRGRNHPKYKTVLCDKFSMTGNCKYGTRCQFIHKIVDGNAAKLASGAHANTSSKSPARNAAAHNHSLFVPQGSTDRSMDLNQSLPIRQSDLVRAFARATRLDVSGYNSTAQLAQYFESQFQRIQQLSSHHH

[14] = biological target: T6, Zinc finger protein mex-5 (Caenorhabditis elegans, UniProt Q9XUB2); assay: MEX-5/TCR-2 RNA interaction inhibitors, dose response, biochemical, C. elegans, fluorescence polarization (AID 1960)
T6 sequence (Q9XUB2 whole entry): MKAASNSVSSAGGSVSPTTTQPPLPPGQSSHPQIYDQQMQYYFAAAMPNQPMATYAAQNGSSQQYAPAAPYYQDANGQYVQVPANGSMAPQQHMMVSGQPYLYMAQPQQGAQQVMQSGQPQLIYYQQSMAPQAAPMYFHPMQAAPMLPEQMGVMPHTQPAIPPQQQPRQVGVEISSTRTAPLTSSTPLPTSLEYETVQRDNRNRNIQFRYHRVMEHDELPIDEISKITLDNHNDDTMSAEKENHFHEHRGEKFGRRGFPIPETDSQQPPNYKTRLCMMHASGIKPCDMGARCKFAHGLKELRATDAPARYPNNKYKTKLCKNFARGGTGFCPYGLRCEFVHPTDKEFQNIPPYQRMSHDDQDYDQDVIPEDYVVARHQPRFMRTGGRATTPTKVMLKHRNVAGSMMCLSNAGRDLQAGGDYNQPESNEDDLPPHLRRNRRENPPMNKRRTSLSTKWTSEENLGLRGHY

[15] = biological target: Likely tRNA 2'-phosphotransferase (Candida albicans (strain SC5314 / ATCC MYA-2876) (Yeast), UniProt Q5A7N4); assay: TPT1 tRNA phosphotransferase inhibitors, dose response, biochemical, fluorescence polarization (AID 2160)
Sequence of Likely tRNA 2'-phosphotransferase (Q5A7N4 whole entry): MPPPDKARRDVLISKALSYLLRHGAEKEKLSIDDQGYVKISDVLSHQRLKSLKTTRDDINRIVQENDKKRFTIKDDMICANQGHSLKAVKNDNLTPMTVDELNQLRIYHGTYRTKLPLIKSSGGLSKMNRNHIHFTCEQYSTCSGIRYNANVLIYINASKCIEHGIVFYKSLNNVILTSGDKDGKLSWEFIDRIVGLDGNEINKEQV

[16] = biological target: Guanyl-specific ribonuclease T1 (Aspergillus oryzae (strain ATCC 42149 / RIB 40), UniProt P00651); assay: RNase T1 inhibitors, dose response, counter-screen for TPT1 inhibitor project, biochemical, fluorescence polarization, 1536-well (AID 2167)
Sequence of Guanyl-specific ribonuclease T1 (P00651 whole entry): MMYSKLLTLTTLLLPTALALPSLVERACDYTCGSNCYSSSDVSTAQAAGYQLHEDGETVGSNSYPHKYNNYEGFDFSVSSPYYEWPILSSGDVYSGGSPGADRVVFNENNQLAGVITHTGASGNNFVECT

Cytochrome P450 2C19 = Cytochrome P450 2C19 (Homo sapiens, UniProt P33261); assay: Cytochrome panel assay with activity outcomes. Panel member name: p450-cyp2c19 Compounds with AC50 equal or less than 10 uM are considered active; type: functional
Sequence of Cytochrome P450 2C19 (P33261 whole entry): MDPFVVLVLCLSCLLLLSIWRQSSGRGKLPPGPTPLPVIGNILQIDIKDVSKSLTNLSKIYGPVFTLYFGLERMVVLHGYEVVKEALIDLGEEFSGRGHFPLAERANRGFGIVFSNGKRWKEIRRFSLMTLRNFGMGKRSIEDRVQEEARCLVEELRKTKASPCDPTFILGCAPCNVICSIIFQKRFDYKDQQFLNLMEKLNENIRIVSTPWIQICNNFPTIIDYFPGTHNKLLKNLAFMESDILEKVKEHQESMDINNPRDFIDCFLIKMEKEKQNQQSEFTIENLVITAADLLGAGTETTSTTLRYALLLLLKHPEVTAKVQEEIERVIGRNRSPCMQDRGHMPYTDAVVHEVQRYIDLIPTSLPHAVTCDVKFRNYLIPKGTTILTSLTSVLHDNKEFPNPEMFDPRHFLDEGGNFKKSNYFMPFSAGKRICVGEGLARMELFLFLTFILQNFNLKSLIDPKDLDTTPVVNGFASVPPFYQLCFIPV

Cytochrome P450 2C9 [17] = biological target: T3, Cytochrome P450 2C9
Nonstructural protein 1 = Nonstructural protein 1 (Influenza A virus, UniProt Q194T2); type: functional, Influenza A virus (A/California/07/2009(H1N1))
Sequence of Nonstructural protein 1 (Q194T2 whole entry): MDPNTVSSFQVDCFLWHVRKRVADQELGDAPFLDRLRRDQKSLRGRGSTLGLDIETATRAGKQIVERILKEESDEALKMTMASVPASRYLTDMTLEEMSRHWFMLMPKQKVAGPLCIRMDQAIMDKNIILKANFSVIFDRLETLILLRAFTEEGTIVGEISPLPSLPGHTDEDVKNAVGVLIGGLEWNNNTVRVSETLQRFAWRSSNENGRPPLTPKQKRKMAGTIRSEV

For `Cc1ccc[n+](CC(=O)c2ccccc2)c1`, the IC50 [1] was > 100 µM (inactive) and the IC50 [2] was 5.7 µM (active).

With `C[N+]1(CC(O)c2ccccc2)CCCCCC1` (configuration not stated) the IC50 [3] was 2.71 µM (active), the IC50 [4] was 4.26 µM (active) and the IC50 [1] was 60.9 µM (active). For the same compound, the IC50 [2] was 5.42 µM (active).

In the case of `COc1ccc(-c2coc3c(CN4CCCCC4)c(O)c(CN4CCCCC4)c(O)c3c2=O)cc1`, the IC50 (Bcl-2-like protein 10) is reported as 79.7 µM (inactive), the EC50 [5] is reported as 34.4 µM (active) and the EC50 [6] is reported as 32.6 µM (active).

For `O=[N+]([O-])c1ccc2c(c1)Sc1ccc(C(F)(F)F)cc1N2`, the IC50 (NADPH oxidase 1) was 1.41 µM (active).

In the case of `CC(C)[C@@H](CC(=O)N[C@@H]1CCNC[C@H]1C(=O)N[C@H](CC(=O)N[C@@H](CCC(=O)O)CC(=O)O)Cc1c[nH]c2ccccc12)NC(=O)C[C@H](CO)NC(=O)[C@@H]1CNCC[C@H]1N`, the AC50 (Cytochrome P450 2C9 [7]) is reported as 39.8 µM (inconclusive).

For `CN(C(=O)CN1C(=O)c2cccc(N)c2C1=O)C1CCCCC1`, the IC50 [8] was 4.29 µM (active), the IC50 [9] was > 66 µM (inactive) and the IC50 [10] was 32.6 µM (inactive). For the same compound, the IC50 (Protein Rev) was > 8.39 µM (active).

In the case of `O=C(COC(=O)CC12CC3CC(CC(C3)C1)C2)Nc1ncc(Cl)cc1Cl`, the IC50 (Bcl-2-like protein 10) is reported as 40.2 µM (active).

With `Cc1ccccc1NC(=O)NCCCN1CCCC1` the EC50 [11] was > 55.7 µM (not active) and the EC50 [12] was > 55.7 µM (not active).

For `CCOc1cc(/C=C2\C(=O)NC(=O)N(CCc3ccc(F)cc3)C2=O)ccc1O`, the EC50 [13] was > 300 µM (not active), the EC50 [14] was > 300 µM (not active) and the IC50 [15] was > 55.7 µM (not active). The IC50 [16] was 28 µM (not active).

In the case of `O=C(Cn1cnc([N+](=O)[O-])n1)N/N=C/c1ccccc1O`, the EC50 [11] is reported as > 55.7 µM (not active), the AC50 (Cytochrome P450 2C19) is reported as “inconclusive” and the AC50 (Cytochrome P450 2C9 [17]) is reported as 10 µM (inconclusive). For the same compound, the EC50 [12] was > 55.7 µM (not active) and the IC50 (Nonstructural protein 1) was 9.05 µM (active).
